Source: patent USRE41315E1, “Modulators of dopamine neurotransmission” (NSAB, Filial af NeuroSearch Sweden AB, priority 1999, dated 2010)
Counter-ions that a name gives are not always drawn.

Key:
[1] = system: 3,4-dihydroxyphenyl-acetic acid (DOPAC) in the striatum; test: In vivo test: neurochemistry, 3,4-dihydroxyphenyl-acetic acid in the striatum; conditions: rat, n=4
Excerpt: After the behavioral activity sessions the rats were decapitated and their brains rapidly taken out and put on an ice-cold petri-dish. The limbic forebrain, the striatum, the frontal cortex and the remaining hemispheral parts of each rat were dissected and frozen. Each brain part was subsequently analyzed with respect to its content of monoamines and their metabolites. The monoaminergic indices analyzed were dopamine (DA), 3,4-dihydroxyphenyl-acetic acid (DOPAC), homovanillic acid (HVA), 3-methoxytyramine (3-MT), serotonin (5-HT), 5-hydroxyindole acetic acid (5-HIAA), and noradrenaline (NA). All monoaminergic indices in the dissected tissue were analyzed by means of HPLC with electrochemical detection as described by Svensson K, et al., 1986, Naunyn-Schmiedeberg's Arch Pharmacol 334: 234-245 and references cited therein.

[2] = In vivo test: pharmacokinetics in the rat
Method: To determine oral availability (F); and plasma half life (t1/2) of test compounds of this invention experiments performed in the rat were undertaken. On day one rats were implanted with one catheter in the jugular vein and one catheter in the carotid artery under ketamine anesthesia. On day three test compound is injected the either orally or in the jugular vein catheter. Blood samples are collected during 8 hours from the arterial catheter. The blood samples were heparinized and centrifuged. Plasma is collected from the centrifuged samples and frozen. The levels of test compound were subsequently determined in each sample by means of gas chromatography mass spectrometry (Hewlett-Packard 5972MSD). […]

[3] = system: spontaneous behavior (locomotor activity); test: In vivo test: behavior, spontaneous locomotor activity in non-habituated/nonpretreated rats; conditions: rat; for locomotor activity in nonpretreated rats: 100 μmol/kg s.c., 30-60 min
[4] = system: d-amphetamine induced hyperactivity; test: In vivo test: behavior, d-amphetamine induced hyperactivity; conditions: rat, d-amphetamine pretreated, n=4
[5] = system: locomotor activity of habituated rats; test: In vivo test: behavior, locomotor activity of habituated rats

SMILES: CCCN1CCN(c2ccc(Cl)c(C(F)(F)F)c2)CC1 (as salt: HCl)
- melting point: 268 °C

SMILES: CCCN1CCN(c2cc(C(F)(F)F)ccc2Cl)CC1 (as salt: HCl)
- melting point: 234 °C

SMILES: CCCN1CCN(c2ccc(F)c(C(F)(F)F)c2)CC1 (as salt: HCl)
- melting point: 238 °C

SMILES: CCCN1CCN(c2cc(F)cc(C(F)(F)F)c2)CC1 (as salt: HCl)
- melting point: 242 °C

SMILES: CCCN1CCC(c2ccc(Cl)c(C(F)(F)F)c2)CC1 (as salt: HCl) [Example 9, 4-(4-Chloro-3-trifluoromethyl-phenyl)-1-propyl-piperidine]
- melting point: 218 to 220 °C

SMILES: CCCN1CCN(c2ccc(Cl)c([N+](=O)[O-])c2)CC1 (as salt: HCl) [Example 19, 1-(4-Chloro-3-nitro-phenyl)-4-propyl-piperazine]
- melting point: 249 °C

SMILES: CCCN1[C@H](C)CN(c2ccc(Cl)c(C(F)(F)F)c2)C[C@@H]1C (as salt: HCl) [Example 33, cis-4-(4-Chloro-3-trifluoromethyl-phenyl)-2,6-dimethyl-1-propyl-piperazine]
- melting point: 256 °C

SMILES: CCCN1[C@H](C)CN(c2ccc(F)c(C(F)(F)F)c2)C[C@@H]1C (as salt: HCl) [Example 34, cis-4-(4-Fluoro-3-trifluoromethyl-phenyl)-2,6-dimethyl-1-propyl-piperazine]
- melting point: 221 °C

SMILES: CCCN1[C@H](C)CN(c2ccc(Cl)c(Cl)c2)C[C@@H]1C (as salt: HCl) [Example 35, cis-4-(3,4-dichloro-phenyl)-2,6-dimethyl-1-propyl-piperazine]
- melting point: 225 °C

SMILES: CCCN1CCC(c2ccc(F)c(C(F)(F)F)c2)CC1 (as salt: HCl) [Example 43, 4-(4-Fluoro-3-trifluoromethylphenyl)-1-propyl-piperidine]
- melting point: 195 to 197 °C

SMILES: CCCN1CCC(c2cc(F)cc(C(F)(F)F)c2)CC1 (as salt: HCl) [Example 44, 4-(3-Fluoro-5-trifluoromethylphenyl)-1-propyl-piperidine]
- melting point: 215 °C

SMILES: CCCN1CCN(c2cccc(C(F)(F)F)c2)CC1 [1-propyl-4-(3-trifluoromethyl-phenyl)-piperazine, reference compound]
- 3,4-dihydroxyphenyl-acetic acid in the striatum ([1]; 50 μmol/kg s.c.): 3358±162 ng/g tissue
- oral availability (F) [2]: 9,5%
- behavioral inhibition (locomotor activity) ([3]; 50 μmol/kg s.c., n=4): 271±137 cm/60 min

SMILES: CCCN1CCC(c2ccc(Cl)c(C(F)(F)F)c2)CC1 [Example 9, 4-(4-Chloro-3-trifluoromethyl-phenyl)-1-propyl-piperidine]
- 3,4-dihydroxyphenyl-acetic acid in the striatum ([1]; 50 μmol/kg s.c.): 1680±136 ng/g tissue
- oral availability (F) [2]: 55%
- d-amphetamine induced hyperactivity ([4]; 50 μmol/kg s.c.): 3399±1247 cm/30 min
- locomotor activity of habituated rats ([5]; habituated rats, 50 μmol/kg s.c.): 1300±761 cm/60 min
- spontaneous behavior (distance traveled) ([3]; 50 μmol/kg s.c.): 944±114 cm/30 min

SMILES: CCCN1CCN(c2ccc(Cl)c([N+](=O)[O-])c2)CC1 [Example 19, 1-(4-Chloro-3-nitro-phenyl)-4-propyl-piperazine]
- 3,4-dihydroxyphenyl-acetic acid in the striatum ([1]; 100 μmol/kg s.c.): 1693±104 ng/g tissue
- d-amphetamine induced hyperactivity ([4]; 100 μmol/kg s.c.): 3767±2332 cm/60 min
- locomotor activity in nonpretreated rats ([3]; n=4): 266±89 cm/30 min

SMILES: CCCN1[C@H](C)CN(c2ccc(F)c(C(F)(F)F)c2)C[C@@H]1C [Example 34, cis-4-(4-Fluoro-3-trifluoromethyl-phenyl)-2,6-dimethyl-1-propyl-piperazine]
- 3,4-dihydroxyphenyl-acetic acid in the striatum ([1]; 33 μmol/kg s.c.): 1278±143 ng/g tissue
- spontaneous behavior in the habituated rat ([5]; habituated rat, 33 μmol/kg s.c., n=4): 919±143 cm/60 min

SMILES: CCCN1[C@H](C)CN(c2ccc(Cl)c(Cl)c2)C[C@@H]1C [Example 35, cis-4-(3,4-dichloro-phenyl)-2,6-dimethyl-1-propyl-piperazine]
- d-amphetamine induced hyperactivity ([4]; 100 μmol/kg s.c.): 6514±3374 cm/60 min

SMILES: CCCN1CCC(c2ccc(F)c(C(F)(F)F)c2)CC1 [Example 43, 4-(4-Fluoro-3-trifluoromethylphenyl)-1-propyl-piperidine]
- 3,4-dihydroxyphenyl-acetic acid in the striatum ([1]; 100 μmol/kg s.c.): 1895±100 ng/g tissue
- locomotor activity in nonpretreated rats ([3]; n=4): 540±128 cm/30 min
